Measured values: ChEMBL document CHEMBL1147354, “Further bioactive cembranolide diterpenes from the gorgonian Eunicea succinea” (J Nat Prod, 1993)
In brackets after ≈: the same amount, converted by molar mass.

Columns and labels:
Assay type in all cases: functional, cell-based
HCT-116 = assay: Cytotoxicity against human HCT116 cells
CCRF-CEM = assay: Cytotoxicity against human CCRF-CEM cells
MCF7 = assay: Cytotoxicity against human MCF7 cells
SK-MEL-5 = assay: Cytotoxicity against human SK-MEL-5 cells

| Structure (SMILES) | IC50 (HCT-116) | IC50 (CCRF-CEM) | IC50 (MCF7) | IC50 (SK-MEL-5) |
| --- | --- | --- | --- | --- |
| C=C1C(=O)O[C@H]2[C@H](OC(C)=O)[C@H](C)CCC/C(C)=C/CC[C@@]3(C)O[C@@H]3C[C@@H]12 | 8 µg/mL (≈ 21.2 µM) | ≥ 50 µg/mL | 8 µg/mL (≈ 21.2 µM) |  |
| C=C1C(=O)OC2C(=O)[C@H](C)CCC/C(C)=C/CC[C@@]3(C)O[C@@H]3C[C@@H]12 (some centres undefined) [SUCCINOLIDE] | 2 µg/mL (≈ 6.02 µM) | ≥ 50 µg/mL | 3 µg/mL (≈ 9.02 µM) |  |
| C=C1C(=O)O[C@H]2[C@@H](OC(C)=O)[C@H](C)CCC/C(C)=C/CC[C@@]3(C)O[C@@H]3C[C@@H]12 | 0.4 µg/mL (≈ 1.06 µM) |  | 6 µg/mL (≈ 15.9 µM) | 5 µg/mL (≈ 13.3 µM) |
